{"source": "patent US20240409585A1", "about": "“MACROCYCLIC IMMUNOMODULATORS” (priority 2021, published 2024)", "note": "Bridge positions count the residues as written; N and C are the ends. Square brackets hold non-standard residues; d marks the D form. Peptide text beside a SMILES is read from it. * marks the point of attachment. ξ: configuration not given here. Phe(4-COOH) = N[C@@H](Cc1ccc(C(=O)O)cc1)C(=O)O; Bip = N[C@@H](Cc1ccc(-c2ccccc2)cc1)C(=O)O; Phe(4-CN) = N#Cc1ccc(C[C@H](N)C(=O)O)cc1; Phe(2-CN) = N#Cc1ccccc1C[C@H](N)C(=O)O; Phe(3-Me) = Cc1cccc(C[C@H](N)C(=O)O)c1; Val(3-OH) = CC(C)(O)[C@H](N)C(=O)O; Cha = N[C@@H](CC1CCCCC1)C(=O)O; Thr(3ξ) = CC(O)[C@H](N)C(=O)O; Carboxymethyl = O=C(O)C*; NMeA = CN[C@@H](C)C(=O)O; Pra = C#CC[C@H](N)C(=O)O; Dab = NCC[C@H](N)C(=O)O; Nva = CCC[C@H](N)C(=O)O; Dap = NC[C@H](N)C(=O)O; Propargyl = C#CC*", "data": [{"molecular_target": "T1, PE-labeled human PD-L1-Ig binding to Jurkat cell line over-expressing human PD-1 (Jurkat-PD-1) (Homo sapiens, UniProt Q15116)", "T1 construct": "expressed in transfected cells; host or cells: Jurkat", "T1 sequence (Q15116 25-288)": "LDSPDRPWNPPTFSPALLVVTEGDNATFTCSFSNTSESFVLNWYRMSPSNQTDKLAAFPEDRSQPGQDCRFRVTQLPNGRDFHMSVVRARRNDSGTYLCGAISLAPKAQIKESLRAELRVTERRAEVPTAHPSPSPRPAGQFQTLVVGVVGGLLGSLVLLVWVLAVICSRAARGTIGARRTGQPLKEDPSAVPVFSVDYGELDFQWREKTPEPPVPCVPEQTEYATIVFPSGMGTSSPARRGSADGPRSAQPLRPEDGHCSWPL", "assay": "Jurkat-PD-1 Cell Binding High-Content Screening Assay (CBA): Method 1", "details": "Jurkat-hPD-1 cells, PE-labeled PD-L1-Ig 20 nM final; read-out: Jurkat HPDL1 PD1 IC50 (uM) (Method 1)", "units": {"IC50": "µM"}, "values": [{"smiles": "C#CC[C@H](NC(=O)[C@@H](CC(N)=O)NC(=O)[C@@H]1CSCC(=O)N[C@@H](Cc2ccc(OCC(=O)O)cc2)C(=O)N[C@@H](Cc2ccc(OCC(=O)O)cc2)C(=O)N[C@@H](CC(=O)O)C(=O)N[C@@H](Cc2c[nH]c3ccccc23)C(=O)N[C@@H](C(C)C)C(=O)N[C@@H](Cc2ccc(-c3ccccc3)cc2)C(=O)N[C@@H]([C@@H](C)CC)C(=O)N(C)[C@@H](C)C(=O)N[C@H](CC(C)C)C(=O)N[C@@H](CCC)C(=O)N[C@@H](CC2CCCCC2)C(=O)N[C@@H](C(C)(C)O)C(=O)N[C@@H](CO)C(=O)N1)C(N)=O", "note": "[Compound 1718] ({CH2CO}-Y(Carboxymethyl)Y(Carboxymethyl)DWV[Bip]I[NMeA][dL][Nva][Cha][Val(3-OH)]SC[dN][Pra]-NH2; thioether N-14)", "IC50": 0.03}, {"smiles": "CC(C)C[C@@H]1NC(=O)[C@H](CCN)NC(=O)[C@@H](CC(C)C)NC(=O)[C@H](C)N(C)C(=O)[C@H](CCCNC(=N)N)NC(=O)[C@H](Cc2ccc(-c3ccccc3)cc2)NC(=O)[C@H](C(C)C)NC(=O)[C@H](Cc2ccccc2C#N)NC(=O)[C@H](CC(=O)O)NC(=O)[C@H](Cc2ccc(O)cc2)NC(=O)[C@H](Cc2ccccc2)NC(=O)CSC[C@@H](C(=O)N[C@@H](C)C(N)=O)NC(=O)[C@H]([C@@H](C)O)NC(=O)[C@H](C(C)C)NC1=O", "note": "[Compound 1204] ({CH2CO}-FYD[Phe(2-CN)]V[Bip]R[NMeA][dL][Dab]LVTCA-NH2; thioether N-14)", "IC50": 0.33}, {"smiles": "CC(C)C[C@@H]1NC(=O)[C@H](CCN)NC(=O)[C@@H](CC(C)C)NC(=O)[C@H](C)N(C)C(=O)[C@H](C(C)C)NC(=O)[C@H](Cc2ccc(-c3ccccc3)cc2)NC(=O)[C@H](C(C)C)NC(=O)[C@H](Cc2c[nH]c3ccccc23)NC(=O)[C@H](CC(=O)O)NC(=O)[C@H](Cc2ccc(C#N)cc2)NC(=O)[C@H](CN)NC(=O)CSC[C@@H](C(=O)N[C@@H](C)C(N)=O)NC(=O)[C@H]([C@@H](C)O)NC(=O)[C@H](C(C)C)NC1=O", "note": "[Compound 1435] ({CH2CO}-[Dap][Phe(4-CN)]DWV[Bip]V[NMeA][dL][Dab]LVTCA-NH2; thioether N-14)", "IC50": 0.05}, {"smiles": "Cc1cccc(C[C@@H]2NC(=O)[C@H](CC(=O)O)NC(=O)[C@H](Cc3ccc(OCC(=O)O)cc3)NC(=O)[C@H](C(C)O)NC(=O)CSC[C@@H](C(N)=O)NC(=O)[C@H](C(C)O)NC(=O)[C@H](C(C)C)NC(=O)[C@H](CC3CCCCC3)NC(=O)[C@H](CCN)NC(=O)[C@@H](CC(C)C)NC(=O)[C@H](C)N(C)C(=O)[C@H](Cc3ccc(OCC(=O)O)cc3)NC(=O)[C@H](Cc3ccc(-c4ccccc4)cc3)NC(=O)[C@H](Cc3ccc(C(=O)O)cc3)NC2=O)c1", "note": "(stereo partly drawn) [Compound 2249] ({CH2CO}-[Thr(3ξ)]Y(Carboxymethyl)D[Phe(3-Me)][Phe(4-COOH)][Bip]Y(Carboxymethyl)[NMeA][dL][Dab][Cha]V[Thr(3ξ)]C-NH2; thioether N-14)", "IC50": 0.08}, {"smiles": "C#CCOc1ccc(C[C@@H]2NC(=O)[C@H](CC(N)=O)NC(=O)CSC[C@@H](C(=O)N[C@@H](C)C(N)=O)NC(=O)[C@H]([C@@H](C)O)NC(=O)[C@H](C(C)C)NC(=O)[C@H](CC(C)C)NC(=O)[C@H](CCN)NC(=O)[C@@H](CC(C)C)NC(=O)[C@H](C)N(C)C(=O)[C@H](CCCNC(=N)N)NC(=O)[C@H](Cc3ccc(-c4ccccc4)cc3)NC(=O)[C@H](C(C)C)NC(=O)[C@H](Cc3c[nH]c4ccccc34)NC(=O)[C@H](CC(=O)O)NC2=O)cc1", "note": "[Compound 1208] ({CH2CO}-NY(Propargyl)DWV[Bip]R[NMeA][dL][Dab]LVTCA-NH2; thioether N-14)", "IC50": 0.14}, {"smiles": "CC(C)C[C@@H]1NC(=O)[C@H](Cc2c[nH]c3ccccc23)NC(=O)[C@H](CC(=O)O)NC(=O)[C@H](Cc2ccc(OCC(=O)O)cc2)NC(=O)[C@H](Cc2ccccc2)NC(=O)CSC[C@@H](C(=O)N[C@@H](C)C(N)=O)NC(=O)[C@H](CO)NC(=O)[C@H](C(C)C)NC(=O)[C@H](CC(C)C)NC(=O)[C@H](CC(N)=O)NC(=O)[C@@H](CC(C)C)NC(=O)[C@H](C)N(C)C(=O)[C@H](CCCCN)NC(=O)[C@H](Cc2ccc(-c3ccccc3)cc2)NC1=O", "note": "[Compound 2030] ({CH2CO}-FY(Carboxymethyl)DWL[Bip]K[NMeA][dL]NLVSCA-NH2; thioether N-14)", "IC50": 0.03}]}]}
